According to patent US6972296B2, “Carboxylic acid derivatives that inhibit the binding of integrins to their receptors” (Encysive Pharmaceuticals Inc., priority 1999, dated 2005):
Blank lines part the entries; values can stand above or below the molecule they belong to.

Molecular target: T1, α4β1 integrin (Homo sapiens, UniProt P05556+P13612)
T1 construct: endogenous in cells; host or cells: Ramos cells
Assay: Adhesion of calcein-labeled Ramos cells to CS1 (fibronectin) peptide conjugated ovalbumin
Format: cell-based
Conditions: Ramos cell adhesion to CS1 conjugated ovalbumin
Description: A procedure in which a 26-amino acid peptide containing the CS1 sequence of fibronectin with an N-terminal Cys ([…]) was coupled to maleimide activated ovalbumin was used to determine the efficacy of the compounds synthesized. Bovine serum albumin (BSA) and CS1 conjugated ovalbumin were coated onto 96-well polystyrene plates at 0.5 μg/ml in TBS (50 mM TRIS, pH 7.5; 150 mM NaCl) at 4° C. for 16 hours. The plates were washed three times with TBS and blocked with TBS containing 3% BSA at room temperature for 4 hours. Blocked plates were washed three times in binding buffer (TBS; 1 mM MgCl2; 1 mM CaCl2; 1 mM MnCl2) prior to assay. Ramos cells fluorescently labeled with calcein AM were resuspended in binding buffer (10^7 cells/ml) and diluted 1:2 with same buffer with or without compound. 100 μM of compound was added. The cells were added immediately to the wells (2.5×10^5 cells/well) and incubated for 30 minutes at 37° C. Following three washes with binding buffer, adherent cells were lysed and quantitated using a fluorometer. IC50 is defined as the dose required to give 50% inhibition, measured in μM for Tables 2 and 4. The lower the IC50 value and the greater the percentage of inhibition, the more efficient the compound is at prevention of cell adhesion.

[1] = Table 7, dose required to give 50% inhibition
[2] = Table 5, dose required to give 50% inhibition

T1 sequence (P13612 34-1032): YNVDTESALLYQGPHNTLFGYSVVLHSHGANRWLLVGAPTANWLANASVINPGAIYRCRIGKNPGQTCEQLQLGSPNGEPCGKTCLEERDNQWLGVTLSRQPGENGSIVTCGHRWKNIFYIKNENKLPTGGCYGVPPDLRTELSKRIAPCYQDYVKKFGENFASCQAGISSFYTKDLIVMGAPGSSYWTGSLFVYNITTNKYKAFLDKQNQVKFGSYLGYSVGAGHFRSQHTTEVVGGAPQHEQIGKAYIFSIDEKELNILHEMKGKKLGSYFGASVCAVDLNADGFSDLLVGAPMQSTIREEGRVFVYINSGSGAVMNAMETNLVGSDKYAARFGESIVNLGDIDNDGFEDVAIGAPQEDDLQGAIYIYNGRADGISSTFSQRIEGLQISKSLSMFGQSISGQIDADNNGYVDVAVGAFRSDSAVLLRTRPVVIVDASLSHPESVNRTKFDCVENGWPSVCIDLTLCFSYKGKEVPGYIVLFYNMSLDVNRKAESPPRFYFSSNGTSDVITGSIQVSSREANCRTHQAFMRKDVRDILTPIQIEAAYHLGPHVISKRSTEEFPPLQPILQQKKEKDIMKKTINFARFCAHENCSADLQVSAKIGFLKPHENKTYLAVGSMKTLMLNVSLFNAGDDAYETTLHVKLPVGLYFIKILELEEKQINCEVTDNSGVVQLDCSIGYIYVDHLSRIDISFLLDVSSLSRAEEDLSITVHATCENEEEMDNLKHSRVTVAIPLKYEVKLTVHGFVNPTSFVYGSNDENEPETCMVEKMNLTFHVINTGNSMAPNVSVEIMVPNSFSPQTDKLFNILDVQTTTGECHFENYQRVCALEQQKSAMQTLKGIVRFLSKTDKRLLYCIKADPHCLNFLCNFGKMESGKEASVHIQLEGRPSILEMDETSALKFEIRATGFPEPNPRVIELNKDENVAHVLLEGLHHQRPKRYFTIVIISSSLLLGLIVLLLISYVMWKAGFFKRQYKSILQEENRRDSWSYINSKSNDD
T1 sequence (P05556 21-798): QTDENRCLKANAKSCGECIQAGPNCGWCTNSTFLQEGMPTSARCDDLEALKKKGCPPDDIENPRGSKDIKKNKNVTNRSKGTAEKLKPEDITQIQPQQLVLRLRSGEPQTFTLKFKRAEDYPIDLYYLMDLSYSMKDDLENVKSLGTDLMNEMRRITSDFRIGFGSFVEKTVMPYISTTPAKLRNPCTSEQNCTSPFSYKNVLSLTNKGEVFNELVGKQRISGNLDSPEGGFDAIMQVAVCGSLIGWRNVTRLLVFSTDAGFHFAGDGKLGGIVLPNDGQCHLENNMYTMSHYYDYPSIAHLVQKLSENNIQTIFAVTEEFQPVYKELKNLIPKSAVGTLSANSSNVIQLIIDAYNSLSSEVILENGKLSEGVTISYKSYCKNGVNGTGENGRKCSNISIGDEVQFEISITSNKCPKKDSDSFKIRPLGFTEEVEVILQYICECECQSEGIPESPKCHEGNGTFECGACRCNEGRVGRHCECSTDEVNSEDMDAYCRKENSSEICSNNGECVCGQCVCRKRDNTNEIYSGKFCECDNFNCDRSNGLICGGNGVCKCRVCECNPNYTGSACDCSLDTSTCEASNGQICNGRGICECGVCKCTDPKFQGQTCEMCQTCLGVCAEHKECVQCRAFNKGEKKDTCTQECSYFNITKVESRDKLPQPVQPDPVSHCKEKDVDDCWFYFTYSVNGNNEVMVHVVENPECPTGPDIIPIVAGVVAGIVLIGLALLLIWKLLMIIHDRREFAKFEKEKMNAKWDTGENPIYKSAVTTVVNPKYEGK

SMILES: CCCc1cn(Cc2c(Cl)cccc2OC)c(=O)c(NC(=O)N[C@@H](CC(=O)O)c2ccc(C)cc2)c1O
IC50 (Table 6, 30 minutes at 37° C.): 15 nM

SMILES: O=C(O)C[C@H](NC(=O)Nc1cccn(Cc2cccs2)c1=O)c1ccc(F)cc1
IC50 (Table 4, 30 minutes at 37° C.): 1600 nM

SMILES: CC(C)Cc1cccc([C@H](CC(=O)O)NC(=O)Nc2c(O)c3c(n(Cc4ccccc4Cl)c2=O)CCC3)c1
IC50 [1]: 15 nM

SMILES: Cc1ccc([C@H](CC(=O)O)NC(=O)Nc2cccn(Cc3c(Cl)cccc3[N+](=O)[O-])c2=O)cc1
IC50 (Table 4, 30 minutes at 37° C.): 4000 nM

SMILES: CCOc1cccc(Cl)c1Cn1cc(C)c(O)c(NC(=O)N[C@@H](CC(=O)O)c2ccc3c(c2)CCO3)c1=O [(3S)-3-[({[1-(2-chloro-6-ethoxybenzyl)-4-hydroxy-5-methyl-2-oxo-1,2-dihydropyridin-3-yl]amino}carbonyl)amino]-3-(2,3-dihydro-1-benzofuran-5-yl)propanoic acid]
IC50 [1]: 2 nM

SMILES: Cc1ccc([C@H](CC(=O)O)NC(=O)Nc2c(O)c3c(n(Cc4ccccc4Cl)c2=O)CCC3)cc1 [(3S)-3-[({[1-(2-chlorobenzyl)-4-hydroxy-2-oxo-2,5,6,7-tetrahydro-1H-cyclopenta[b]pyridin-3-yl]amino}carbonyl)amino]-3-(4-methylphenyl)propanoic acid]
IC50 [2]: 3 nM

SMILES: CCOc1cccc(Cl)c1Cn1c(C)cc(O)c(NC(=O)N[C@@H](CC(=O)O)c2cccc(OC(C)C)c2)c1=O [(3S)-3-[({[1-(2-chloro-6-ethoxybenzyl)-4-hydroxy-6-methyl-2-oxo-1,2-dihydropyridin-3-yl]amino}carbonyl)amino]-3-(3-isopropoxyphenyl)propanoic acid]
IC50 [1]: 3 nM

SMILES: CCOc1cccc(Cl)c1Cn1c2c(c(O)c(NC(=O)N[C@@H](CC(=O)O)c3cccc(OC(C)C)c3)c1=O)CCC2
IC50 [1]: 4 nM

SMILES: O=C(O)CC(NC(=O)Nc1c(O)ccn(Cc2ccccc2Cl)c1=O)c1ccc(Cl)cc1 (stereo not drawn)
IC50 (Table 3, 30 minutes at 37° C.): 30 nM
IC50 (Table 4, 30 minutes at 37° C.): 30 nM

SMILES: O=C(O)C[C@H](NC(=O)Nc1c(O)c2c(n(Cc3ccccc3Cl)c1=O)CCC2)c1cccc(OCC2CC2)c1 [(3S)-3-[({[1-(2-chlorobenzyl)-4-hydroxy-2-oxo-2,5,6,7-tetrahydro-1H-cyclopenta[b]pyridin-3-yl]amino}carbonyl)amino]-3-[3-(cyclopropylmethoxy)phenyl]propanoic acid]
IC50 [1]: 9 nM

SMILES: Cc1cc(C(CC(=O)O)NC(=O)Nc2c(O)ccn(Cc3ccccc3Cl)c2=O)oc1C (stereo not drawn)
IC50 (Table 6, 30 minutes at 37° C.): 115 nM

SMILES: Cc1ccc([C@H](CC(=O)O)NC(=O)Nc2c(O)c(C3CC3)cn(Cc3ccccc3Cl)c2=O)cc1
IC50 (Table 6, 30 minutes at 37° C.): 20 nM

SMILES: Cc1cc([C@H](CC(=O)O)NC(=O)Nc2cccn(Cc3ccccc3Cl)c2=O)ccc1O
IC50 (Table 4, 30 minutes at 37° C.): 70 nM

SMILES: CCOc1ccc([C@H](CC(=O)O)NC(=O)Nc2c(O)c(C3CC3)cn(Cc3ccccc3Cl)c2=O)cc1OCC
IC50 (Table 6, 30 minutes at 37° C.): 6 nM

SMILES: Cc1ccc([C@H](CC(=O)O)NC(=O)Nc2cccn(Cc3ccccc3Cl)c2=O)cc1C
IC50 (Table 4, 30 minutes at 37° C.): 90 nM

SMILES: COc1cccc(OC)c1[C@H](CC(=O)O)NC(=O)Nc1cccn(Cc2ccccc2Cl)c1=O
IC50 (Table 4, 30 minutes at 37° C.): 6000 nM

SMILES: CCCCOc1cccc([C@H](CC(=O)O)NC(=O)Nc2c(O)ccn(Cc3ccccc3Cl)c2=O)c1 [(3S)-3-(3-butoxyphenyl)-3-[({[1-(2-chlorobenzyl)-4-hydroxy-2-oxo-1,2-dihydropyridin-3-yl]amino}carbonyl)amino]propanoic acid]
IC50 [2]: 5 nM

SMILES: Cc1cn(Cc2ccccc2Cl)c(=O)c(NC(=O)N[C@H](c2ccccc2)c2nnn[nH]2)c1O
IC50 [1]: > 10000 nM

SMILES: Cc1ccc([C@H](CC(=O)O)NC(=O)Nc2c(NC(=O)C(C)(C)C)ccn(Cc3ccccc3Cl)c2=O)cc1 [(3S)-3-{[({1-(2-chlorobenzyl)-4-[(2,2-dimethylpropanoyl)amino]-2-oxo-1,2-dihydropyridin-3-yl}amino)carbonyl]amino}-3-(4-methylphenyl)propanoic acid]
IC50 [2]: 10 nM

SMILES: CCOc1cccc(Cl)c1Cn1c2c(c(O)c(NC(=O)N[C@@H](CC(=O)O)c3ccccc3)c1=O)CCC2 [(3S)-3-[({[1-(2-chloro-6-ethoxybenzyl)-4-hydroxy-2-oxo-2,5,6,7-tetrahydro-1H-cyclopenta[b]pyridin-3-yl]amino}carbonyl)amino]-3-phenylpropanoic acid]
IC50 [1]: 2 nM

SMILES: Cc1ccc([C@H](CC(=O)O)NC(=O)Nc2c(O)ccn(Cc3cc(F)ccc3F)c2=O)cc1
IC50 [2]: 15 nM

SMILES: Cc1ccc([C@H](CC(=O)O)NC(=O)Nc2c(O)c(C)cn(Cc3cc(S(=O)(=O)N4CCCCC4)ccc3Cl)c2=O)cc1
IC50 [1]: 27 nM

SMILES: CCOc1cc([C@H](CC(=O)O)NC(=O)Nc2c(O)c(C)cn(Cc3ccccc3Cl)c2=O)ccc1-c1ccccc1
IC50 [1]: 25 nM

SMILES: O=C(O)C[C@H](NC(=O)Nc1c(O)c2c(n(Cc3ccccc3Cl)c1=O)CCC2)c1cccc(OCC(F)(F)F)c1
IC50 (Table 6, 30 minutes at 37° C.): 30 nM

SMILES: O=C(O)C[C@H](NC(=O)Nc1c(O)c2c(n(Cc3ccccc3Cl)c1=O)CCC2)c1cccc(OC2CC2)c1
IC50 [1]: 4 nM

SMILES: Cc1ccc([C@H](CC(=O)O)NC(=O)Nc2c(N3CCC3)ccn(Cc3ccccc3Cl)c2=O)cc1 [(3S)-3-{[({4-(1-azetanyl)-1-[(2-chlorophenyl)methyl]-2-oxo-1,2-dihydro-3-pyridinyl}amino)carbonyl]amino}-3-(4-methylphenyl)propanoic acid]
IC50 (Table 3, 30 minutes at 37° C.): 5 nM

SMILES: Cc1ccc([C@H](CC(=O)O)NC(=O)Nc2c(O)ccn(Cc3c(Cl)cccc3Cl)c2=O)cc1
IC50 [2]: 13 nM

SMILES: CCOc1ccc([C@H](CC(=O)O)NC(=O)Nc2c(O)c3c(n(Cc4ccccc4Cl)c2=O)CCC3)cc1OCC
IC50 (Table 6, 30 minutes at 37° C.): 3 nM

SMILES: CCOc1ncc([C@H](CC(=O)O)NC(=O)Nc2c(O)c(C)cn(Cc3ccccc3Cl)c2=O)c(OCC)n1
IC50 [1]: 13 nM

SMILES: O=C(O)C[C@H](NC(=O)Nc1cccn(Cc2cccs2)c1=O)c1cccc(C(F)(F)F)c1
IC50 (Table 4, 30 minutes at 37° C.): 2500 nM

SMILES: Cc1cccc(Cl)c1Cn1c2c(c(O)c(NC(=O)N[C@@H](CC(=O)O)c3ccc(Cl)c(OC(C)C)c3)c1=O)CCC2
IC50 [1]: 23 nM

SMILES: CCOc1cccc(Cl)c1Cn1cc(C2CC2)c(O)c(NC(=O)N[C@@H](CC(=O)O)c2cccc(OC(C)C)c2)c1=O [(3S)-3-[({[1-(2-chloro-6-ethoxybenzyl)-5-cyclopropyl-4-hydroxy-2-oxo-1,2-dihydropyridin-3-yl]amino}carbonyl)amino]-3-(3-isopropoxyphenyl)propanoic acid]
IC50 [1]: 3 nM

SMILES: CSc1cccc(Cn2ccc(O)c(NC(=O)N[C@@H](CC(=O)O)c3ccc(C)cc3)c2=O)c1
IC50 (Table 6, 30 minutes at 37° C.): 20 nM

SMILES: CCc1ccc([C@H](CC(=O)O)NC(=O)Nc2c(O)ccn(Cc3ccccc3Cl)c2=O)cc1CC
IC50 [2]: 50 nM

Continued, values first:

IC50 (Table 4, 30 minutes at 37° C.): 1000 nM
SMILES: O=C(O)CC(NC(=O)Nc1cccn(Cc2ccccc2Cl)c1=O)c1ccc(Cl)c(Cl)c1 (stereo not drawn)

IC50 (Table 6, 30 minutes at 37° C.): 40 nM
SMILES: Cc1ccc([C@H](CC(=O)O)NC(=O)Nc2c(O)c(C)c(C)n(Cc3ccccc3Cl)c2=O)cc1C

IC50 (Table 4, 30 minutes at 37° C.): 500 nM
SMILES: O=C(O)C[C@H](NC(=O)Nc1cccn(Cc2ccccc2)c1=O)c1ccc2c(c1)OCO2

IC50 (Table 2, 30 minutes at 37° C.): 15 nM
SMILES: O=C(O)C[C@H](NC(=O)N[C@H]1CCCCN(Cc2cccs2)C1=O)c1ccc2c(c1)OCO2

IC50 [1]: 22 nM
SMILES: Cc1cn(Cc2ccccc2Cl)c(=O)c(NC(=O)N[C@@H](CC(=O)O)c2cnc3ccccc3c2)c1O

IC50 [2]: 35 nM
SMILES: Cc1ccc([C@H](CC(=O)O)NC(=O)Nc2c(O)ccn(Cc3ccccc3S(C)(=O)=O)c2=O)cc1

IC50 (Table 4, 30 minutes at 37° C.): 40 nM
SMILES: COc1ccc([C@H](CC(=O)O)NC(=O)Nc2cccn(Cc3ccccc3Cl)c2=O)cc1C

IC50 (Table 6, 30 minutes at 37° C.): 30 nM
SMILES: O=C(O)CC(NC(=O)Nc1c(O)ccn(Cc2ccccc2Cl)c1=O)c1cccs1 (stereo not drawn)

IC50 (Table 6, 30 minutes at 37° C.): 15 nM
SMILES: COc1ccc2cc([C@H](CC(=O)O)NC(=O)Nc3c(O)ccn(Cc4ccccc4Cl)c3=O)ccc2c1

IC50 [2]: 55 nM
SMILES: Cc1ccc([C@H](CC(=O)O)NC(=O)Nc2c(O)ccn(Cc3cccc(C)c3)c2=O)cc1

IC50 (Table 6, 30 minutes at 37° C.): 25 nM
SMILES: Cc1ccc([C@H](CC(=O)O)NC(=O)Nc2c(O)c(C)cn(Cc3c(F)cccc3F)c2=O)cc1

IC50 (Table 4, 30 minutes at 37° C.): 3000 nM
SMILES: O=C(O)C[C@H](NC(=O)Nc1cccn(Cc2ccc(Cl)cc2)c1=O)c1ccc2c(c1)OCO2

IC50 (Table 3, 30 minutes at 37° C.): 4 nM
SMILES: CCCc1ccn(Cc2ccccc2Cl)c(=O)c1NC(=O)N[C@@H](CC(=O)O)c1ccc(C)cc1

IC50 (Table 4, 30 minutes at 37° C.): 80 nM
SMILES: Cc1ccc([C@H](CC(=O)O)NC(=O)Nc2cccn(Cc3cc(N)ccc3Br)c2=O)cc1

IC50 [1]: 23 nM
SMILES: COc1ccc(-c2ccc([C@H](CC(=O)O)NC(=O)Nc3c(O)c(C)cn(Cc4ccccc4Cl)c3=O)cc2)cc1

IC50 [2]: 25 nM
SMILES: Cc1ccc([C@H](CC(=O)O)NC(=O)Nc2c(O)ccn(Cc3ccc(OC(F)(F)F)cc3)c2=O)cc1

IC50 [1]: 13 nM
SMILES: O=C(O)C[C@H](NC(=O)Nc1c(O)c2c(n(Cc3ccccc3Cl)c1=O)CCC2)c1ccc(OC(F)(F)F)cc1

IC50 (Table 3, 30 minutes at 37° C.): 40 nM
IC50 (Table 4, 30 minutes at 37° C.): 40 nM
SMILES: O=C(O)CC(NC(=O)Nc1c(O)ccn(Cc2ccccc2Cl)c1=O)c1ccc(Cl)c(Cl)c1 (stereo not drawn)

IC50 (Table 6, 30 minutes at 37° C.): 4 nM
SMILES: CCOc1cccc([C@H](CC(=O)O)NC(=O)Nc2c(O)c(CC)cn(Cc3c(Cl)cccc3OCC)c2=O)c1

IC50 (Table 3, 30 minutes at 37° C.): 70 nM
SMILES: Cc1ccc([C@H](CC(=O)O)NC(=O)Nc2cc(C)cn(Cc3ccccc3Cl)c2=O)cc1 [(3S)-3-{[({1-[(2-chlorophenyl)methyl]-5-methyl-2-oxo-1,2-dihydro-3-pyridinyl}amino)carbonyl]amino}-3-(4-methylphenyl)propanoic acid]

IC50 [1]: 3 nM
SMILES: COc1ccc([C@H](CC(=O)O)NC(=O)Nc2c(O)c3c(n(Cc4ccccc4Cl)c2=O)CCC3)cc1F
